Laboratory results published in ChEMBL document CHEMBL4619778, “Oligopeptides as Neuropeptide Y Y4 Receptor Ligands: Identification of a High-Affinity Tetrapeptide Agonist and a Hexapeptide Antagonist” (J Med Chem, 2020).
Square brackets hold non-standard residues; d marks the D form. Peptide text beside a SMILES is read from it. ξ: configuration not given here. ξOrn = NCCCC(N)C(=O)O

How the values were obtained:
[1] = target: T1, Neuropeptide Y receptor type 4 (Homo sapiens, UniProt P50391); assay: Displacement of [3H]UR-KK200 from human Y4 receptor expressed in CHO cells co-expressing Gqi5-mtAEQ measured after 90 mins by scintillation counting analysis; assay type: cell-based
[2] = target: T2, Neuropeptide Y receptor type 1 (Homo sapiens, UniProt P25929); assay: Displacement of [3H]UR-MK299 from Y1 receptor in human SK-N-MC cells; assay type: cell-based
T2 sequence (P25929 whole entry): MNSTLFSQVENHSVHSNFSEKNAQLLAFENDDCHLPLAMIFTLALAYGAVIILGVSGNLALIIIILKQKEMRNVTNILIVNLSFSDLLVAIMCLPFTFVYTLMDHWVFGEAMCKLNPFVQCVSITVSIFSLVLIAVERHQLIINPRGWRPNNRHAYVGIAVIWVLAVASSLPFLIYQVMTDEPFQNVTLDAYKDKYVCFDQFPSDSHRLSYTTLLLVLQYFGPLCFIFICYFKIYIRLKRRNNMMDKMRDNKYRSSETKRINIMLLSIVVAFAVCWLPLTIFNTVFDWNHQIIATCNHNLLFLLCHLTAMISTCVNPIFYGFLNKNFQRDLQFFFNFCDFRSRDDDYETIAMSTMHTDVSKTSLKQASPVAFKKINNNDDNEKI

[3] = target: T3, Neuropeptide Y receptor type 2 (Homo sapiens, UniProt P49146); assay: Displacement of [3H]propionyl-pNPY from human Y2 receptor expressed in CHO cells measured after 2 hrs by microbeta liquid scintillation counting analysis; assay type: cell-based
T3 sequence (P49146 whole entry): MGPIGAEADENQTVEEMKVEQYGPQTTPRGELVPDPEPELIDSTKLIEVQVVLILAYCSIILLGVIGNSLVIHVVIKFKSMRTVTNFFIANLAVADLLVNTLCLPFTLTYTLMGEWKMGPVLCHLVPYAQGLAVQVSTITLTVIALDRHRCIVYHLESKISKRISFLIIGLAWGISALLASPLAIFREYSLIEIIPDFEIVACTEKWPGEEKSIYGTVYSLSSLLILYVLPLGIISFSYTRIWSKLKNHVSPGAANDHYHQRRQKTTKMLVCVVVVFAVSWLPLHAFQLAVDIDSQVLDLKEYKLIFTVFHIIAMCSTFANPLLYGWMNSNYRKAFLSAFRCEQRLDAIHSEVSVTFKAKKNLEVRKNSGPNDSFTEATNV

[4] = target: T4, Neuropeptide Y receptor type 5 (Homo sapiens, UniProt Q15761); assay: Displacement of [3H]propionyl-pNPY from human Y5 receptor expressed in human HEC1B cells; assay type: cell-based
T4 sequence (Q15761 whole entry): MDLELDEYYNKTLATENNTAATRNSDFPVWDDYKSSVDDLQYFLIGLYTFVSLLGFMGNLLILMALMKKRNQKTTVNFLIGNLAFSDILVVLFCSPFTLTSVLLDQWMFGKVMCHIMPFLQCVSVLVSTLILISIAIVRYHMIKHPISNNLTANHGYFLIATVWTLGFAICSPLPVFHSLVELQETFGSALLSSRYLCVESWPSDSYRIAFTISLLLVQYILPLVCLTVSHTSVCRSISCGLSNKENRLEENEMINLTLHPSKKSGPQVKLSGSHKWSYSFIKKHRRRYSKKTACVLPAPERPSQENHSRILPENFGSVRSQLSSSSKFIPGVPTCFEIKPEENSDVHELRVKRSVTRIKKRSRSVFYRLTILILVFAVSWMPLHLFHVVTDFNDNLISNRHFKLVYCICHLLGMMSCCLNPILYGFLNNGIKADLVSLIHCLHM

Homo sapiens [5] = organism: Homo sapiens; assay: Selectivity ratio of Ki for displacement of [3H]UR-MK299 from Y1 receptor in human SK-N-MC cells to Ki for displacement of [3H]UR-KK200 from human Y4 receptor expressed in CHO cells co-expressing Gqi5-mtAEQ; assay type: cell-based
Homo sapiens [6] = organism: Homo sapiens; assay: Selectivity ratio of Ki for displacement of [3H]propionyl-pNPY from human Y2 receptor expressed in CHO cells to Ki for displacement of [3H]UR-KK200 from human Y4 receptor expressed in CHO cells co-expressing Gqi5-mtAEQ; assay type: cell-based
Homo sapiens [7] = organism: Homo sapiens; assay: Selectivity ratio of Ki for displacement of [3H]propionyl-pNPY from human Y5 receptor expressed in human HEC1B cells to Ki for displacement of [3H]UR-KK200 from human Y4 receptor expressed in CHO cells co-expressing Gqi5-mtAEQ; assay type: cell-based
[8] = target: T1, Neuropeptide Y receptor type 4; assay: Agonist activity at human Y4R expressed in HEK293T cells co-expressing ARRB1 assessed as induction of beta-arrestin1 recruitment measured for 40 mins by D-luciferin based luminescence assay; assay type: cell-based, HEK-293T
[9] = target: T1, Neuropeptide Y receptor type 4; assay: Agonist activity at human Y4R expressed in HEK293T cells co-expressing ARRB2 assessed as induction of beta-arrestin2 recruitment measured for 40 mins by D-luciferin based luminescence assay; assay type: cell-based, HEK-293T
[10] = target: T1, Neuropeptide Y receptor type 4; assay: Agonist activity at human Y4 receptor expressed in CHO cells co-expressing Gqi5-mtAEQ assessed as intracellular calcium mobilization measured for 43 secs in presence of coelenterazine by aequorin-reporter gene based luminescence assay; assay type: functional, cell-based

T1 sequence (P50391 whole entry): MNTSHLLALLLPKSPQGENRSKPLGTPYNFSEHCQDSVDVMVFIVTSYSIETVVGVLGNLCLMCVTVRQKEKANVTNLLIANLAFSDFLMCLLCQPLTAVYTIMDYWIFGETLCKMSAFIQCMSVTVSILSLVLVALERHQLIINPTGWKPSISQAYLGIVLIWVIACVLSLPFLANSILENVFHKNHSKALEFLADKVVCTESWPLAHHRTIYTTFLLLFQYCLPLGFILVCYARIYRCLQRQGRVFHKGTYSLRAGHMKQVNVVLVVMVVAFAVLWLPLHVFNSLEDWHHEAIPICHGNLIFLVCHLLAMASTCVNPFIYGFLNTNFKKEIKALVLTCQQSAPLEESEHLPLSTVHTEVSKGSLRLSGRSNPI

Compound	Ki ([1]; read-out: Ki) [nM]	Ki ([2]; read-out: pKi (converted)) [nM]	Ki ([2]; sk-n-mc, read-out: Ki) [nM]	Ki ([3]; cho, read-out: Ki) [nM]	Ki ([3]; read-out: pKi (converted)) [nM]	Ki ([4]; read-out: Ki) [nM]	Ki ([4]; read-out: pKi (converted)) [nM]	Ratio Ki (Homo sapiens [5])	Ratio Ki (Homo sapiens [6])	Ratio Ki (Homo sapiens [7])	EC50 ([8]; read-out: EC50) [nM]	EC50 ([9]; read-out: EC50) [nM]	EC50 ([10]; read-out: EC50) [nM]	Ki ([1]; read-out: pKi (converted)) [nM]	EC50 ([9]; read-out: pEC50 (converted)) [nM]	Ki ([2]; read-out: Ki) [nM]	Ki ([3]; read-out: Ki) [nM]	EC50 ([8]; read-out: pEC50 (converted)) [nM]	EC50 ([10]; read-out: pEC50 (converted)) [nM]
CC(=O)N[C@@H](CCCNC(=N)N)C(=O)NC(CCCN)C(=O)NCC(=O)N[C@@H](Cc1c[nH]c2ccccc12)C(=O)N[C@@H](CCCNC(=N)N)C(=O)N[C@@H](CC(C)C)C(=O)N[C@@H](CCCNC(=N)N)C(=O)N[C@@H](Cc1ccc(O)cc1)C(N)=O (stereo not given in full) (Ac-R[ξOrn]GWRLRY-NH2)	4.3	> 1000	> 1000	> 1000	> 1000	> 1000	> 1000	> 230	> 230	> 230	170	140	230	–	–	–	–	–	–
H-WRLRY-NH2	1.7	> 1000	> 1000	> 10000	> 10000	> 1000	> 1000	> 590	> 5900	> 590	160	140	250	1.62	148	–	–	–	–
CC(=O)N[C@@H](CCCNC(=N)N)C(=O)N[C@@H](Cc1c[nH]c2ccccc12)C(=O)N[C@@H](CCCNC(=N)N)C(=O)N[C@@H](CC(C)C)C(=O)N[C@@H](CCCNC(=N)N)C(=O)N[C@@H](Cc1ccc(O)cc1)C(N)=O	1.4	> 1000	> 1000	> 1000	> 1000	> 1000	> 1000	> 710	> 710	> 710	67	35	120	–	–	–	–	–	–
CC(C)C[C@H](NC(=O)[C@H](CCCNC(=N)N)NC(=O)[C@H](Cc1ccc(O)cc1)NC(=O)[C@@H](N)CCCNC(=N)N)C(=O)N[C@@H](CCCNC(=N)N)C(=O)N[C@@H](Cc1ccc(O)cc1)C(N)=O	2	> 3160	–	> 10000	> 10000	> 3000	> 3160	> 1500	> 5000	> 1500	51	38	100	–	–	> 3000	–	–	–
CC(=O)N[C@@H](CCCNC(=N)N)C(=O)N[C@@H](Cc1ccc(O)cc1)C(=O)N[C@@H](CCCNC(=N)N)C(=O)N[C@@H](CC(C)C)C(=O)N[C@@H](CCCNC(=N)N)C(=O)N[C@@H](Cc1ccc(O)cc1)C(N)=O	3.4 to 3.6	–	–	–	–	> 3000	–	> 830	> 830	> 830	170	120	190	3.72	112	> 3000	> 3000	162	182
Ac-RRLRY-NH2	17	> 3160	–	–	> 3160	> 10000	> 10000	> 180	> 180	> 590	600	510	2500	14.1	–	> 3000	> 3000	–	–
CC(C)C[C@H](NC(=O)[C@H](CCCNC(=N)N)NC(=O)[C@H](Cc1ccc(O)cc1)NC(=O)[C@H](CCCNC(=N)N)NC(=O)CCC(=O)O)C(=O)N[C@@H](CCCNC(=N)N)C(=O)N[C@@H](Cc1ccc(O)cc1)C(N)=O	4	> 316	–	–	> 3160	> 10000	> 10000	> 75	> 750	> 2500	460	430	620	–	–	> 300	> 3000	–	–
Ac-RGWRLRY-NH2	2.8	> 1000	> 1000	–	> 3160	> 10000	> 10000	> 360	> 1070	> 3600	160	51	110	–	–	–	> 3000	–	–
CC(C)C[C@H](NC(=O)[C@@H](N)CCCNC(=N)N)C(=O)N[C@@H](CCCNC(=N)N)C(=O)N[C@@H](Cc1ccc(O)cc1)C(N)=O	3.4	> 10000	> 10000	> 10000	> 10000	> 10000	> 10000	> 2900	> 2900	> 2900	280	170	440	–	–	–	–	–	–
Ac-RFRLRY-NH2	8.9	> 1000	> 1000	> 10000	> 10000	> 1000	> 1000	> 110	> 1100	> 110	550	320	550	8.71	–	–	–	–	–
